This is an account of results in PubChem BioAssay AID1033 (Sanford-Burnham Center for Chemical Genomics, 2008).

Active and inactive are the calls of the source. How the calls were made is not given here.

The assay addresses Chaperone protein DnaK (Escherichia coli (strain K12)) (UniProt P0A6Y8). The experiment in a line: E. coli DnaK SBD ligand binding – biophysical, NMR, chaperone (AID 1033). The settings on record: Purified DnaK SBD.

Chain of Chaperone protein DnaK (Escherichia coli (strain K12)) (P0A6Y8 whole entry, looked up): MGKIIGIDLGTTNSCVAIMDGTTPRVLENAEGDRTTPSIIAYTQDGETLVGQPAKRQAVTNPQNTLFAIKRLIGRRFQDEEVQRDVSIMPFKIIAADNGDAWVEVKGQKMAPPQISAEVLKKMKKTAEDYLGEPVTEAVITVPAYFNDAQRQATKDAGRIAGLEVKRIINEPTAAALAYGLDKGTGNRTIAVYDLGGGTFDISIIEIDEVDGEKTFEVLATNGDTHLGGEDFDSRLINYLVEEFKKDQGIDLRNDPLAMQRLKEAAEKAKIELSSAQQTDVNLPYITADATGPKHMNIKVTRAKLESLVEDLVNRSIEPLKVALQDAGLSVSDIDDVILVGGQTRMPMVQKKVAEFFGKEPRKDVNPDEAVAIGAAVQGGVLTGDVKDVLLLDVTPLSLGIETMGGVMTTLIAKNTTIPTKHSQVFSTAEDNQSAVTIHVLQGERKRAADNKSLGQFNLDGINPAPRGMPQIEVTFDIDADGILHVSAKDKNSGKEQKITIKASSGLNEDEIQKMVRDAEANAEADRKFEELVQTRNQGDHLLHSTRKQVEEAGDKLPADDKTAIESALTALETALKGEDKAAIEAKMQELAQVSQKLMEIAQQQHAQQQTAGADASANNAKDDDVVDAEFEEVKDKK

One may read the Kd as the constant that tells how readily two partners part at equilibrium. Consider `CC(=O)Nc1ccc(C(=O)n2nc(C)cc2C)cc1`, for which the Kd is > 4 mM (inactive).

In the case of `COC(=O)c1c(C)cc(OC)cc1O`, the Kd is > 4 mM (inactive).

For the compound `Cn1c(=O)c2[nH]c(Nc3ccccc3)nc2n(C)c1=O`, the Kd is > 4 mM (inactive).

On to `CN1CCC(NC(=S)NC2CC2)CC1`, for which the Kd was > 4 mM (inactive).

As for `c1coc(-c2nc(-c3ccncc3)no2)c1`, the Kd is > 4 mM (inactive).

Take `O=C(Oc1ccc2c(c1)CCC2)N1CCOCC1`: the Kd is > 4 mM (inactive).

For the compound `Cc1cc(C)n(/N=C\c2cccs2)c(=O)c1C(N)=O`, the Kd is > 4 mM (inactive).

As for `NC[C@H]1O[C@H](O[C@H]2[C@H](O)[C@@H](O[C@H]3O[C@H](CO)[C@@H](O)[C@H](N)[C@H]3O)[C@H](N)C[C@@H]2N)[C@H](N)[C@@H](O)[C@@H]1O`, the Kd was > 4 mM (inactive).

On to `COc1cc(C2NC(=S)NC(C)=C2C(C)=O)ccc1O` (configuration not stated), for which the Kd is > 4 mM (inactive).

Turning to `Cc1cc(NC(=O)c2c(F)c(F)c(F)c(F)c2F)no1`, the Kd was > 4 mM (inactive).

`O=C(O)c1csc(-c2cccs2)n1`: the Kd was > 4 mM (inactive).

Consider `O=C(O)CN1C(=O)c2cccc([N+](=O)[O-])c2C1=O`, for which the Kd was > 4 mM (inactive).

With `O=C(NCc1cccs1)c1nc2ncccn2n1`, the Kd entry is “inactive”.

Consider `OCc1ccc2ncccc2c1`, for which the Kd was > 4 mM (inactive).

On to `CC1(C)Cc2c(c(-c3ccco3)[nH]c(=O)c2C#N)CO1`, for which the Kd was > 4 mM (inactive).

Take `CCOC12NC(=O)CC(=O)N1C(c1ccccc1)=CS2` (configuration not stated): the Kd is > 4 mM (inactive).

Consider `Cc1ccccc1NC(=O)CC1SC(N)=NC1=O` (configuration not stated), for which the Kd was > 4 mM (inactive).

As to `c1ccc(-c2n[nH]c(-c3ccccn3)n2)nc1`, the Kd was > 4 mM (inactive).

As to `NC(=O)c1cccc2c1OCCO2`, the Kd is > 4 mM (inactive).

As to `COc1ccc(-c2oc3ccccc3c(=O)c2O)cc1OC`, the Kd was > 4 mM (inactive).

With `Cc1ccc(-c2nnn(CC(=O)O)n2)cc1`, the Kd was > 4 mM (inactive).

In the case of `Nc1ncnc2c1ncn2C1O[C@H](COP(=O)(O)O)[C@@H](O)[C@H]1O` (some centres not stated), the Kd was > 4 mM (inactive).

In the case of `CC(=O)Nc1ccc(S(=O)(=O)NCC2CCCO2)cc1` (configuration not stated), the Kd is > 4 mM (inactive).

Regarding `c1cc(CNc2ccc3c(c2)OCCO3)ccn1`, the Kd is > 4 mM (inactive).

On to `N[C@@H](C(=O)O)[C@@H](O)[C@H](O)[C@H](O)CO`, for which the Kd was > 4 mM (inactive).

As for `NC1Cc2ccccc2C1`, the Kd is > 4 mM (inactive).

Turning to `C[C@H]1[C@H](C)CC[C@]2(C(=O)O)CC[C@]3(C)C(=CCC4[C@@]5(C)C[C@@H](O)[C@H](O)[C@@](C)(CO)C5[C@H](O)C[C@]43C)[C@H]12` (some centres not stated), the Kd was > 4 mM (inactive).

For the compound `CC1(C)C2CC(=O)[C@]3(C)C(CC[C@@]4(C)[C@H](c5ccoc5)OC(=O)[C@H]5O[C@]543)[C@@]2(C)C=C[C@@H]1O` (some centres not stated), the Kd was > 4 mM (inactive).

For `c1ccc2nc3c(nc2c1)CCc1nonc1-3`, the Kd is > 4 mM (inactive).

`OCc1ccc(-c2cccs2)s1`: the Kd was > 4 mM (inactive).

Regarding `CC(=O)Nc1ccc(C(=O)N2CCOCC2)cc1Cl`, the Kd is > 4 mM (inactive).

On to `O=C(Cc1ccccc1)Nc1c[nH]c(=O)[nH]c1=O`, for which the Kd is > 4 mM (inactive).

Take `CCOc1ccc(C)cc1S(=O)(=O)n1ccnc1`: the Kd was > 4 mM (inactive).

For `OCC(O)Cc1ccc2c(c1)OCO2` (configuration not stated), the Kd is > 4 mM (inactive).

Consider `CC(=O)c1c(O)n(C)c(=S)n(C)c1=O`, for which the Kd is > 4 mM (inactive).

In the case of `Cn1ncc2c(=O)n(CC(=O)c3ccccc3)cnc21`, the Kd was > 4 mM (inactive).

On to `O=c1ccc2ccc(O)cc2o1`, for which the Kd was > 4 mM (inactive).

For `O=C1CNC(=O)/C1=C/c1ccc(O)cc1`, the Kd was > 4 mM (inactive).

Turning to `CC(=O)O[C@@H]1C=C[C@@]2(C)C(C[C@@H](OC(C)=O)[C@@]3(C)C4=CC(=O)O[C@@H](c5ccoc5)[C@]4(C)CCC23)C1(C)C` (some centres not stated), the Kd was > 4 mM (inactive).

`COC(=O)[C@H]1[C@H]2C[C@H]3c4[nH]c5ccccc5c4CCN3C[C@H]2CC[C@@H]1O`: the Kd is > 4 mM (inactive).

As for `Cc1cc(=O)n2ccc(CN3CCOCC3)c(O)c2n1`, the Kd was > 4 mM (inactive).

As to `C[C@@H]1O[C@@H](O[C@H]2C[C@@H](O)[C@]3(CO)C4C(CC[C@]3(O)C2)[C@@]2(O)CC[C@H](C3=CC(=O)OC3)[C@@]2(C)C[C@H]4O)[C@H](O)[C@H](O)[C@H]1O` (some centres not stated), the Kd was > 4 mM (inactive).

On to `O=C(O)c1ccc(-n2ccnc2)cc1`, for which the Kd is > 4 mM (inactive).

Regarding `Cc1ccc(N2C(=O)CC(=O)NC2=O)cc1`, the Kd is > 4 mM (inactive).

Turning to `C=C1C(N)CC2CC1C2(C)C` (configuration not stated), the Kd was > 4 mM (inactive).

`O=C(O)c1ccc2[nH]c3c(c2c1)CSCC3`: the Kd is > 4 mM (inactive).

As to `O=c1c2ccccc2nc2n1CCC2O` (configuration not stated), the Kd was > 4 mM (inactive).

For the compound `O=[N+]([O-])c1c[n+]([O-])n(-c2ccccc2)n1`, the Kd is > 4 mM (inactive).

In the case of `S=c1nc(C2CC2)[nH]c2ccccc12`, the Kd is > 4 mM (inactive).

With `CC(=O)NC12CC3CC(CC(O)(C3)C1)C2`, the Kd was > 4 mM (inactive).

Regarding `Cc1cc(C(=O)Nc2sc(C)c(C)c2C#N)c(C)o1`, the Kd was > 4 mM (inactive).

Take `CC(=O)N1CCN(c2ccc(O)cc2)CC1`: the Kd is > 4 mM (inactive).

On to `OC[C@H]1O[C@@H](O[C@H]2[C@H](O)[C@@H](O)[C@@H](O)O[C@@H]2CO)[C@H](O)[C@@H](O)[C@@H]1O`, for which the Kd is > 4 mM (inactive).

On to `NCc1ccc(-n2cccn2)cc1`, for which the Kd was > 4 mM (inactive).

Take `Cn1cnnc1Sc1ncnc(N)c1[N+](=O)[O-]`: the Kd is > 4 mM (inactive).

Take `O=C(Nc1ccccc1)c1cccc(N2C(=O)CCC2=O)c1`: the Kd is > 4 mM (inactive).

With `[O-][n+]1onc2c1CCc1c-2nn(-c2ccccc2)[n+]1[O-]`, the Kd was > 4 mM (inactive).

On to `Cc1cc(C)nc(Nc2n[nH]c(Cc3ccccc3)n2)n1`, for which the Kd is > 4 mM (inactive).

For the compound `Nc1ccc(S(=O)(=O)Nc2nccs2)cc1`, the Kd is > 4 mM (inactive).

Turning to `COc1ccc(-c2nnc(-c3ccc(N)cc3)o2)cc1`, the Kd was > 4 mM (inactive).

In the case of `CSc1nc2nccc(N)n2n1`, the Kd is > 4 mM (inactive).

In the case of `O=C(CN1CCOCC1)Nc1nccs1`, the Kd is > 4 mM (inactive).

For `Cc1nc2ccccc2c(=O)n1N1C(=O)CCCC1=O`, the Kd is > 4 mM (inactive).

Consider `C[C@@H]1CC[C@H]2[C@@H](C)C(=O)O[C@@H]3OC4(C)CC[C@@H]1[C@]32OO4`, for which the Kd was > 4 mM (inactive).

Consider `CCP(=O)(CC)c1cccc(C)c1`, for which the Kd is > 4 mM (inactive).

On to `O=C(O)Cn1nnnc1-c1ccc(F)cc1`, for which the Kd is > 4 mM (inactive).

For the compound `CC(C)(O)CC[C@@H](O)[C@](C)(O)C1CC[C@@]2(O)C3=CC(=O)C4C[C@@H](O)[C@@H](O)C[C@]4(C)C3CC[C@]12C` (some centres not stated), the Kd is > 4 mM (inactive).

As to `O=C(Nn1cnnc1)c1cc2c(s1)CCCC2`, the Kd is > 4 mM (inactive).

`CC(=O)Cc1nsc(NC(=O)c2ccc(C)cc2)n1`: the Kd is > 4 mM (inactive).

Take `c1cncc(Cn2cccc2)c1`: the Kd is > 4 mM (inactive).

With `O=C1c2ccccc2C(=O)c2c1ccc(O)c2O`, the Kd was > 4 mM (inactive).

Turning to `N#Cc1nc(-c2ccccc2Cl)oc1N1CCOCC1`, the Kd was > 4 mM (inactive).

`O=C(NC12CC3CC(CC(C3)C1)C2)c1cnccn1`: the Kd was > 4 mM (inactive).

`O=C(Nc1cnccn1)c1cccc(C(F)(F)F)c1`: the Kd is > 4 mM (inactive).

For the compound `COc1cccc(-c2cc(=O)c3cc(OC)ccc3o2)c1`, the Kd was > 4 mM (inactive).

With `Cc1nc(-c2ccccc2)sc1CO`, the Kd is > 4 mM (inactive).

For `C=CCCCCCCCCCCCC(O)CC(O)COC(C)=O` (configuration not stated) (tested in a mixture with another compound), the Kd was > 4 mM (inactive).

Turning to `COC(=O)Cc1cc(=O)n(-c2ccccc2)[nH]1`, the Kd is > 4 mM (inactive).

In the case of `Cc1cc(=O)n(CC(C)C)c(O)c1C#N`, the Kd was > 4 mM (inactive).

With `OCC1CN(Cc2ccccc2)CCO1` (configuration not stated), the Kd is > 4 mM (inactive).

As for `COC(=O)c1ccc2ncccc2c1`, the Kd was > 4 mM (inactive).

As to `O=S1(=O)C=CC(Nc2ccccc2)C1` (configuration not stated), the Kd is > 4 mM (inactive).

For the compound `NC(=O)CNC(=O)c1ccc2ccccc2n1`, the Kd is > 4 mM (inactive).

Turning to `Cc1ccc(SCc2nc(-c3cccnc3)no2)cc1`, the Kd was > 4 mM (inactive).

Regarding `COc1ccc2c(c1O)-c1c(OC)c(OC)cc3c1[C@H](C2)N(C)CC3`, the Kd was > 4 mM (inactive).

As to `O=C(Nc1nncs1)c1c(F)cccc1F`, the Kd was > 4 mM (inactive).

For the compound `CC(C)c1c(O)ccc2c1CCC1[C@@](C)(C=O)CCC[C@]21C` (some centres not stated), the Kd is > 4 mM (inactive).

For the compound `COc1ccc(/C=C2/NC(=S)NC2=O)cc1`, the Kd is > 4 mM (inactive).

Take `Cc1nc(CC(=O)O)c(-c2ccccc2)s1`: the Kd was > 4 mM (inactive).

As for `Nc1ccccc1C(=O)CC(N)C(=O)O` (configuration not stated), the Kd was > 4 mM (inactive).

Regarding `c1ccc(-c2noc(-c3ccco3)n2)nc1`, the Kd is > 4 mM (inactive).

Take `Cc1ccnc(NS(=O)(=O)c2cccs2)c1`: the Kd is > 4 mM (inactive).

With `O=C(O)c1cccnc1N1CCOCC1`, the Kd is > 4 mM (inactive).

For the compound `CC1(C)O[C@H]2CC(=O)OC[C@]23[C@H]2CC[C@@]4(C)[C@H](c5ccoc5)OC(=O)[C@H]5O[C@]54[C@]2(C)C(=O)C[C@@H]13`, the Kd is > 4 mM (inactive).

Regarding `NC(=O)CSc1ccc(-c2ccco2)nn1`, the Kd was > 4 mM (inactive).

As to `Nc1cccc2c(=O)[nH][nH]c(=O)c12`, the Kd was > 4 mM (inactive).

Consider `S=C(Cc1cccnc1)N1CCOCC1`, for which the Kd was > 4 mM (inactive).
